# Positions count from the first letter of the chain named. “And” between values parts separate entries of the source, which are not always exact repeats. Equal entries are not always repeated.
# How the values were obtained:
# Format in all cases: in vitro ADME
# human liver microsomes [1] = test: SN-38 glucuronide formation by human liver microsome samples of patients; details: N 48
# Text: To obtain statistical data on interindividual variation of SN-38 glucuronidation, we measured the SN-38-G formation, as currently known in the background art, with microsomes preparations from each patient liver sample. The glucuronide formation rates were regrouped into ranges and every sample was categorized within these ranges.
# human liver microsomes [2] = test: SN-38 glucuronidation kinetics with commercially available human liver microsomes
# Text: (§1) For the determination of Vmax and Km.
# UGT1A7*1 = molecular target: T1, UGT1A7*1 (Homo sapiens, UniProt Q9HAW7); test: SN-38 glucuronidation by microsomes of HEK293 cells expressing UGT1A7*1; set-up: key to Function (SN-38G formation versus *1 allele): High: no significant difference in activity compared to *1 allele.; Low: significantly lower SN-38G formation versus *1 allele
# T1 construct: expressed in transfected cells
# T1 sequence (Q9HAW7 26-530): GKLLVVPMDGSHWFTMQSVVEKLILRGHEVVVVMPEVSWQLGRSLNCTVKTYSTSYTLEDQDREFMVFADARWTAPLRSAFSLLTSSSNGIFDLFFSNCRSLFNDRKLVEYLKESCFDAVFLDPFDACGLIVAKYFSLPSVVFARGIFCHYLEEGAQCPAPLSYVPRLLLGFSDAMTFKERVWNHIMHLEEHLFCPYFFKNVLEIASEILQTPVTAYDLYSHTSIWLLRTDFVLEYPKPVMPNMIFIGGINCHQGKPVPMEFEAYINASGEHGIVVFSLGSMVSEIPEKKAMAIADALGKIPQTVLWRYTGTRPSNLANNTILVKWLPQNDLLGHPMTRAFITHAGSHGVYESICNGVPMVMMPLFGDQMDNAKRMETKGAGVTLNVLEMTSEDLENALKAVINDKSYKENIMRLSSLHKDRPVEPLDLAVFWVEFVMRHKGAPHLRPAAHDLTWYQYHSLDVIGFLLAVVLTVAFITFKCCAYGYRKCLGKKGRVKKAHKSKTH
# Experimental: (§2) Western blot analyses of UGT1A7 and UGT1A9 variants expressed in HEK293 cells were performed on microsomal proteins (10 μg) separated on a 10% SDS-polyacrylamide gel. After transferring the proteins, the membranes were probed with an anti-UGT1A RC-71 polyclonal antibody and with an anti-calnexin antibody. The relative levels of UGT1A9 (a) and UGT1A7 proteins (b) were determined by semi-quantitative densitometric analysis of the Enhanced chemiluminescence (ECL) image. The in vitro SN-38 activity was assessed using microsomal fractions prepared from HEK293 cells expressing the *1 and variant UGT1A9 (c) and UGT1A7 (d) alleles and incubated with 5 μM of SN-38 as described in Materials and Methods.
# as §1
# UGT1A7*5 = molecular target: T2, UGT1A7*5 (Homo sapiens, UniProt Q9HAW7, G115S); test: SN-38 glucuronidation by microsomes of HEK293 cells expressing UGT1A7*5; set-up: key to Function (SN-38G formation versus *1 allele): High: no significant difference in activity compared to *1 allele.; Low: significantly lower SN-38G formation versus *1 allele
# T2 construct: expressed in transfected cells
# T2 sequence (Q9HAW7 26-530 G115S): T1 sequence (Q9HAW7 26-530) with G90S
# Experimental: as §2, §1
# UGT1A7*9 = molecular target: T3, UGT1A7*9 (Homo sapiens, UniProt Q9HAW7, G115S/N129K/R131K); test: SN-38 glucuronidation by microsomes of HEK293 cells expressing UGT1A7*9; set-up: key to Function (SN-38G formation versus *1 allele): High: no significant difference in activity compared to *1 allele.; Low: significantly lower SN-38G formation versus *1 allele
# T3 construct: expressed in transfected cells
# T3 sequence (Q9HAW7 26-530 G115S/N129K/R131K): T1 sequence (Q9HAW7 26-530) with G90S, N104K, R106K
# Experimental: as §2, §1
smiles,measurement,setting,value
"CCc1c2c(nc3ccc(O)cc13)-c1cc3c(c(=O)n1C2)COC(=O)[C@]3(O)CC [SN-38, 7-ethyl-10-hydroxycamptothecin]","SN-38 glucuronide formation, glucuronidation rate, Mean",human liver microsomes [1],0.61 pmol/mg of protein/minute and 0.6118 pmol/mg of protein/minute
same,"SN-38 glucuronide formation, quantile 0.0% minimum",human liver microsomes [1],0.1063 pmol/mg of protein/minute
same,"SN-38 glucuronide formation, quantile 0.5%",human liver microsomes [1],0.1063 pmol/mg of protein/minute
same,"SN-38 glucuronide formation, quantile 2.5%",human liver microsomes [1],0.1113 pmol/mg of protein/minute
same,"SN-38 glucuronide formation, quantile 10.0%",human liver microsomes [1],0.1641 pmol/mg of protein/minute
same,"SN-38 glucuronide formation, quantile 25.0% quartile",human liver microsomes [1],0.2763 pmol/mg of protein/minute
same,"SN-38 glucuronide formation, quantile 50.0% median",human liver microsomes [1],0.4204 pmol/mg of protein/minute
same,"SN-38 glucuronide formation, quantile 75.0% quartile",human liver microsomes [1],0.9279 pmol/mg of protein/minute
same,"SN-38 glucuronide formation, quantile 90.0%",human liver microsomes [1],1.5699 pmol/mg of protein/minute
same,"SN-38 glucuronide formation, quantile 97.5%",human liver microsomes [1],1.9309 pmol/mg of protein/minute
same,"SN-38 glucuronide formation, quantile 99.5%",human liver microsomes [1],1.9735 pmol/mg of protein/minute
same,"SN-38 glucuronide formation, quantile 100.0% maximum",human liver microsomes [1],1.9735 pmol/mg of protein/minute
same,Km,"human liver microsomes [2]; SN-38, LCQ detector",6.8 ± 3 µM
same,Km,"human liver microsomes [2]; SN-38, fluorescent detection",4.8 ± 0.8 µM
same,SN-38 glucuronidating activity of the allele (in words),UGT1A7*1,highest
same,Function (SN-38G formation versus *1 allele),UGT1A7*1; in vitro experiments,High
same,SN-38 glucuronidating activity of the allele (in words),UGT1A7*5,low
same,Function (SN-38G formation versus *1 allele),UGT1A7*5; in vitro experiments,Low
same,lower rates of SN-38G formation compared to UGT1A7*1,"UGT1A7*5; range given for *5, *7 and *8 together",38-76%
same,SN-38 glucuronidating activity of the allele (in words),UGT1A7*9,highest and low
same,Function (SN-38G formation versus *1 allele),UGT1A7*9; in vitro experiments,Low

# Source: patent US20060183119A1, “Method for determining predisposition to a physiological reaction in a patient” (UNIVERSITE LAVAL, priority 2002, published 2006)
